pEC50: −log10 of the molar value. Where two headings read alike, the source gives them in different places.
Legend:
[1] = system: SARS‐CoV‐2; conditions: previously found; cited from earlier work
[2] = system: SARS‐CoV‐2/FFM1; experiment: microbe, parasite or virus in culture; conditions: Severe acute respiratory syndrome coronavirus 2, Caco-2, 48 h, read-out: EC50 visual CPE
[3] = system: SARS‐CoV‐2/FFM1
[4] = system: SARS‐CoV‐2; conditions: read-out: EC50 reported in previous studies (range); cited from earlier work

| Structure (SMILES) | pEC50 [2] | also measured |
| --- | --- | --- |
| CCN(CC)CCCC(C)Nc1ccnc2cc(Cl)ccc12 (stereo not shown) [Chloroquine] |  | activity in SARS‐CoV‐2–infected Caco‐2 cells [1]: inactive |
| COc1cccc2c1C(=O)c1c(O)c3c(c(O)c1C2=O)C[C@@](O)(C(=O)CO)C[C@@H]3O[C@H]1C[C@H](N)[C@H](O)[C@H](C)O1 [Doxorubicin] | 4.92 |  |
| CCN(CCO)CCCC(C)Nc1ccnc2cc(Cl)ccc12 (stereo not shown) [Hydroxychloroquine] |  | activity in SARS‐CoV‐2–infected Caco‐2 cells [1]: inactive |
| CCC(C)n1ncn(-c2ccc(N3CCN(c4ccc(OCC5COC(Cn6cncn6)(c6ccc(Cl)cc6Cl)O5)cc4)CC3)cc2)c1=O (stereo not shown) [Itraconazole] | 5.80 |  |
| Cc1c(O)cccc1C(=O)N[C@@H](CSc1ccccc1)[C@H](O)CN1C[C@H]2CCCC[C@H]2C[C@H]1C(=O)NC(C)(C)C [Nelfinavir] | 5.09 |  |
| O=C(NC1CN2CCC1CC2)c1cc(Cl)cc2c1OC1CCCCC21 (stereo not shown) [RG‐12915] |  | pEC50 ([3]; read-out: EC50 visual CPE): 4.92 |
| CCC(CC)COC(=O)[C@H](C)N[P@](=O)(OC[C@H]1O[C@@](C#N)(c2ccc3c(N)ncnn23)[C@H](O)[C@@H]1O)Oc1ccccc1 [Remdesivir] | 5.89 | pEC50 [4]: 5.14 to 6.11 |
| CCN(CC)CCNC(=O)c1ccc(NS(C)(=O)=O)cc1 [Sematilide] | < 4.00 | antiviral activity in Caco‐2 cells ([3]; Caco‐2 cells, SARS‐CoV‐2/FFM1): not active |

Reference: article PMC9088669 (Journal of Medical Virology, 2022)
